Assays:
P‐gp [1] = target: T1, P‐gp (Homo sapiens, UniProt P08183); test: P-gp inhibition, [3H]digoxin efflux in Caco-2 cells; details: for % Control relative to 0 mmol/L MMF: Caco‐2 cells, [^3H]digoxin efflux ratio
[2] = test system: moderate‐to‐severe psoriasis; details: phase III trial (BRIDGE); both P < .001; cited from earlier work
CYP3A4/5 = CYP3A4/5 inhibition in human liver microsomes; format: biochemical; details: for IC50 at 10 min / inhibition at 10 min, 666 μmol/L: human, human liver microsomes; for inhibition at 10 min, 666 μmol/L: probe testosterone, Inhibition of formation of 6β‐hydroxytestosterone, Mean, testosterone
[3] = pH conditions and gut esterases; cited from earlier work
P‐gp [4] = target: T1, P‐gp; test: P-gp inhibition, [3H]digoxin efflux in MDCKII-MDR1 and MDCKII-WT cells; details: for % Control relative to 0 mmol/L MMF: MDCKII cells, [^3H]digoxin net efflux ratio
[5] = Preliminary metabolic stability in HLM; format: in vitro ADME, human; details: with and without cofactor, 37°C, 0-40 minutes, MMF at 750 μmol/L
CYP2B6 = target: T2, CYP2B6 (Homo sapiens, UniProt P20813); test: CYP2B6 inhibition in human liver microsomes; format: biochemical
T2 sequence (P20813 1-491): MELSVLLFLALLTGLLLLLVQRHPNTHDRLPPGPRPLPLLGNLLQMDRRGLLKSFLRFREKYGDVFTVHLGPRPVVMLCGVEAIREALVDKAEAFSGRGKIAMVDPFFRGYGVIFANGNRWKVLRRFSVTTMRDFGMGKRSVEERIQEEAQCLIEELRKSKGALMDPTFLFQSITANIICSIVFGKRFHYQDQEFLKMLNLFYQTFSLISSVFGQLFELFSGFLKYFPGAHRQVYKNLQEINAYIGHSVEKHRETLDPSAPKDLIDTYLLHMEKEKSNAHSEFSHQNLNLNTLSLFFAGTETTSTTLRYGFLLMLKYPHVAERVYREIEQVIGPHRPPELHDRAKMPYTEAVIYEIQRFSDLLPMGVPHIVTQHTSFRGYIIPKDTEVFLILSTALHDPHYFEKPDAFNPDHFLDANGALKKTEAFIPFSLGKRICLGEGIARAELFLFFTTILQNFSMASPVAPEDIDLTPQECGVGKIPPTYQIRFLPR

[6] = read-out: maximum plasma concentration (Cmax) of MMF; for a 240 mg dose; clinically relevant; cited from earlier work
CYP2B6 mRNA = CYP2B6 mRNA induction in cultured human hepatocytes; format: cell-based
CYP2C19 = CYP2C19 (Homo sapiens, UniProt P33261); test: CYP2C19 inhibition in human liver microsomes; format: biochemical
[7] = MMF solubility in supplemented Williams' Medium E; format: physicochemical; details: MMF up to 750 μmol/L
[8] = Cytotoxicity in cultured human hepatocytes; format: cell-based; details: human, cryopreserved plated human hepatocytes
human hepatocytes = test: Cytotoxicity in cultured human hepatocytes; format: cell-based; details: MMF ≤250 μmol/L; 72‐hour incubation
CYP1A2 mRNA = CYP1A2 mRNA induction in cultured human hepatocytes; format: cell-based
CYP2C8 = target: T3, CYP2C8 (Homo sapiens, UniProt P10632); test: CYP2C8 inhibition in human liver microsomes; format: biochemical
T3 sequence (P10632 1-490): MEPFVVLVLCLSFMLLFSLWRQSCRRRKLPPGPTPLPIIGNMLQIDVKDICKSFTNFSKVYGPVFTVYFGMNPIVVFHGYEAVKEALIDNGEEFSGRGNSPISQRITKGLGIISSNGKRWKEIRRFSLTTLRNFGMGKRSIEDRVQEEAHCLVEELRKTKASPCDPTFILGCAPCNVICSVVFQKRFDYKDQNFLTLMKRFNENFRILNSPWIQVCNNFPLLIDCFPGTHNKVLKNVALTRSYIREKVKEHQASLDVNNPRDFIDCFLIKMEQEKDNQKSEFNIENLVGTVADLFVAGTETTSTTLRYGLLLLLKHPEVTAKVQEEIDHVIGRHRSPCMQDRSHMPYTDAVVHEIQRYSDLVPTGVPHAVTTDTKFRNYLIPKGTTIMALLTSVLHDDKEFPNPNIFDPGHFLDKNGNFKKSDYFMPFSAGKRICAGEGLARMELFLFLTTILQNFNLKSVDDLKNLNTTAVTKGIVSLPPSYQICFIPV

[9] = MMF concentration in incubation medium; format: in vitro ADME; details: no‐cell control plate; after 24 hours’ incubation
P‐gp [10] = target: T1, P‐gp; test: P-gp substrate assessment in MDCKII-MDR1 and WT MDCKII cells; format: in vitro ADME; details: MMF; at 120 minutes; all concentrations investigated
CYP2C9 = CYP2C9 (Homo sapiens, UniProt P11712); test: CYP2C9 inhibition in human liver microsomes; format: biochemical
CYP2D6 = CYP2D6 (Homo sapiens, UniProt P10635); test: CYP2D6 inhibition in human liver microsomes; format: biochemical
[11] = Permeability across Caco-2 cell monolayers; format: in vitro ADME; details: human, Caco-2, pH 7.4
CYP1A2 = target: T4, CYP1A2 (Homo sapiens, UniProt P05177); test: CYP1A2 inhibition in human liver microsomes; format: biochemical
T4 sequence (P05177 1-516): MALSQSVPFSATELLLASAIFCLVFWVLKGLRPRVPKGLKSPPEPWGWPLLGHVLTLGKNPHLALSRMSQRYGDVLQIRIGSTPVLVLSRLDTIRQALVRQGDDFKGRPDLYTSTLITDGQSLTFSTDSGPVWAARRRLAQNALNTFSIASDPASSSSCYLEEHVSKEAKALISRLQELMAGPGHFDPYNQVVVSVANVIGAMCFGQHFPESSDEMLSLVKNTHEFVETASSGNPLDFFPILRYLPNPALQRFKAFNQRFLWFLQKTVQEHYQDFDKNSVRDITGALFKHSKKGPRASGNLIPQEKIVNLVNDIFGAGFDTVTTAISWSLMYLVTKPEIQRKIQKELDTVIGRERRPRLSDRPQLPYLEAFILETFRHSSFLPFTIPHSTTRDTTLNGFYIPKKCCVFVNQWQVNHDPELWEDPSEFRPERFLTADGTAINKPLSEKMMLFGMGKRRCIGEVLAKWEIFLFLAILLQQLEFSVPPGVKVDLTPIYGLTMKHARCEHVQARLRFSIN

[12] = Preliminary solubility in potassium phosphate buffer with HLM; format: physicochemical; details: MMF in solutions of HLM at 0.025 and 0.3 mg/mL
CYP3A4 mRNA = CYP3A4 mRNA induction in cultured human hepatocytes; format: cell-based

T1 sequence (P08183 whole entry): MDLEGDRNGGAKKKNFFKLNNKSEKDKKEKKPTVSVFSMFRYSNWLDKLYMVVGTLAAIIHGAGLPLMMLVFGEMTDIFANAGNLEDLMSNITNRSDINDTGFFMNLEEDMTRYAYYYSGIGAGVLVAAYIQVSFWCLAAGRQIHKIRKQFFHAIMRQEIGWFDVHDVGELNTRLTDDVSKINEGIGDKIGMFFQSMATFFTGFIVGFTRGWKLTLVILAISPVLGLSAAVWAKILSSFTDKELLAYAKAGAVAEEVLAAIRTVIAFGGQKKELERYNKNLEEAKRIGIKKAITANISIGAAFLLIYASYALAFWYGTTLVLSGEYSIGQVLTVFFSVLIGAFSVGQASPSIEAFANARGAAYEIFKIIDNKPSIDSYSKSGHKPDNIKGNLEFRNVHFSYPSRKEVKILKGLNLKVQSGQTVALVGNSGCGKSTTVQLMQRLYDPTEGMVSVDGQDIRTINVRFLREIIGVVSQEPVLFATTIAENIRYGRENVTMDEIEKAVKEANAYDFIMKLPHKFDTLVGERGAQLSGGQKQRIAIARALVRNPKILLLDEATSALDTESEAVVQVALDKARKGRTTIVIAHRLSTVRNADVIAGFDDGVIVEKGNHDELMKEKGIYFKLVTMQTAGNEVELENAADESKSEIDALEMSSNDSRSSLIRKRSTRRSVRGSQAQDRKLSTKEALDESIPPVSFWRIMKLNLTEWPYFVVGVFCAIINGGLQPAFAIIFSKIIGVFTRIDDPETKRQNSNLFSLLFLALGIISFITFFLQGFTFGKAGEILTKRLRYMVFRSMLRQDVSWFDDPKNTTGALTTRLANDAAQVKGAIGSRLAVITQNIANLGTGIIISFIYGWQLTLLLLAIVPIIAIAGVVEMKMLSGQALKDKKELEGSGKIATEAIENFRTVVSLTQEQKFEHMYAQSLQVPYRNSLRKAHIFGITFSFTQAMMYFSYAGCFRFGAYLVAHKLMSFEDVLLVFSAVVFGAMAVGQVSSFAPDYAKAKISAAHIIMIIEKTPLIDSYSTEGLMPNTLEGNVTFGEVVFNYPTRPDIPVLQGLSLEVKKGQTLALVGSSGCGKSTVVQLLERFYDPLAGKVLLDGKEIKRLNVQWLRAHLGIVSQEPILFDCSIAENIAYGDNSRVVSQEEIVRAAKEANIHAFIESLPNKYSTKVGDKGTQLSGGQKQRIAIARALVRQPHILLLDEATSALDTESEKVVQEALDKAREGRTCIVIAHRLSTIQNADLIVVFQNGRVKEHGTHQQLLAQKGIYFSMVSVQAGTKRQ
Sequence of CYP2D6 (P10635 whole entry): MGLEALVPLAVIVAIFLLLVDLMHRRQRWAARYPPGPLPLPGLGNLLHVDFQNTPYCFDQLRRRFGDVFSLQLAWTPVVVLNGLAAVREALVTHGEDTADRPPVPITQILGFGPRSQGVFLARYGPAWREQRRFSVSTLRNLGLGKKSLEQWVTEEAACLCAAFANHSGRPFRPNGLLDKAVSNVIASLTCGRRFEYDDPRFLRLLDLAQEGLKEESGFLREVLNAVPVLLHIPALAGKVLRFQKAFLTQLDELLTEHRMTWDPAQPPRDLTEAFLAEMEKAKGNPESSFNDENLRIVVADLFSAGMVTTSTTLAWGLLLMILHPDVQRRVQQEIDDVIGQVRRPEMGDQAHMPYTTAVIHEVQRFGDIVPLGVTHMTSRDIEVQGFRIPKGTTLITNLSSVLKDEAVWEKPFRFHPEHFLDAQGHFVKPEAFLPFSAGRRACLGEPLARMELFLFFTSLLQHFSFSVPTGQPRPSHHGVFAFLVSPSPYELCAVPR
Sequence of CYP2C19 (P33261 whole entry): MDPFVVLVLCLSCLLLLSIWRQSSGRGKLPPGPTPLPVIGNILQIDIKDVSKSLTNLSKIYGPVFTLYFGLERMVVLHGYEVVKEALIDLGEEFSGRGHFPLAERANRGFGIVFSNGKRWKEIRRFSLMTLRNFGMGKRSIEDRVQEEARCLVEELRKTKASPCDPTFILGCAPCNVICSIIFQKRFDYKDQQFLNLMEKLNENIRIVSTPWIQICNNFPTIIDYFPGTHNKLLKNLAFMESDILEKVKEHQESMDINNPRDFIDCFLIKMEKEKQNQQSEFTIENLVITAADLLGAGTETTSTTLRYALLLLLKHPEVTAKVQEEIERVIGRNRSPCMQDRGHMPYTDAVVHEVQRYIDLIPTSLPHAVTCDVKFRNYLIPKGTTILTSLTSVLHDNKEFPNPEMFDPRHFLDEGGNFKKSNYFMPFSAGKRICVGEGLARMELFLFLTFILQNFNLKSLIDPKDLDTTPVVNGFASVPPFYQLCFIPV
Sequence of CYP2C9 (P11712 whole entry): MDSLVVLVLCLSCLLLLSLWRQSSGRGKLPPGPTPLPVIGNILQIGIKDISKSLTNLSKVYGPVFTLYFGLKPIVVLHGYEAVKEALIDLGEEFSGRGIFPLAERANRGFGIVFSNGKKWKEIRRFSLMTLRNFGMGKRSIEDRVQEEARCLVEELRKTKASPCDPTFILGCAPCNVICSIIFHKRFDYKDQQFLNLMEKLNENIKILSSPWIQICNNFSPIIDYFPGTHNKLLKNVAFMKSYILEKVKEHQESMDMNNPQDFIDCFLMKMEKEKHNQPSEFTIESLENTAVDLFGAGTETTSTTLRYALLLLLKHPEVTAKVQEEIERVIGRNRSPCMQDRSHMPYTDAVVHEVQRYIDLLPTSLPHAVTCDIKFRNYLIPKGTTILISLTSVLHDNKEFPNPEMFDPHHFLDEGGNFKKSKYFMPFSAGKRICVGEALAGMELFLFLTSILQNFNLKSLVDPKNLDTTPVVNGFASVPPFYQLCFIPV

Compound: COC(=O)/C=C/C(=O)OC [DMF, dimethylfumarate]
- IC50 (P‐gp [1]): 1500 µM
- number of patients with PASI 75 at Week 16 [2]: superiority over placebo and noninferiority versus the FAE combination
- Inhibition of formation of 1′‐hydroxymidazolam, Mean (CYP3A4/5; DMF 666 μmol/L, 30 min PI + cofactor, midazolam, HLM): 8.93%
- IC50 at 10 min (CYP3A4/5): > 666 µM
- inhibition at 10 min, 666 μmol/L (CYP3A4/5; DMF 666 μmol/L, 0 min PI, HLM): 0%
- inhibition at 10 min, 666 μmol/L (CYP3A4/5; DMF 666 μmol/L, 30 min PI + cofactor, HLM): 35.5%
- inhibition at 10 min, 666 μmol/L (CYP3A4/5; DMF 666 μmol/L, 30 min PI – cofactor, HLM): 0%
- hydrolysis half‐life of DMF in the intestine [3]: less than 2 minutes
- IC50 (P‐gp [4]): 900 µM
- metabolic stability under the incubation conditions [5]: unlikely to be stable

Compound: COC(=O)/C=C/C(=O)O [MMF, monomethylfumarate]
- IC50 (CYP2B6): > 750 µM
- decrease of [^3H]digoxin efflux ratio (P‐gp [1]; 7.38 mmol/L MMF, Caco‐2): approximately 85%
- fold increase of Papp for [^3H]digoxin in the A–B direction (P‐gp [1]; 7.38 mmol/L MMF, Caco‐2, possibly cytotoxicity): approximately 9 fold
- % Control relative to 0 mmol/L MMF (P‐gp [1]; MMF 0.0738 mmol/L): 76.9%
- % Control relative to 0 mmol/L MMF (P‐gp [1]; MMF 0.246 mmol/L): 76.7%
- % Control relative to 0 mmol/L MMF (P‐gp [1]; MMF 0.738 mmol/L): 99.8%
- % Control relative to 0 mmol/L MMF (P‐gp [1]; MMF 7.38 mmol/L): 14.5%
- Cmax [6]: 11.2 µM
- fold increase in CYP2B6 mRNA (CYP2B6 mRNA; 250 μmol/L MMF, donor 4): 17.6 fold
- CYP2B6 mRNA induction, overall (CYP2B6 mRNA; MMF 1‐250 µmol/L, three donors): No concentration‐dependent induction effects
- IC50 at 10 min (CYP3A4/5): > 750 µM
- IC50 (CYP2C19): > 750 µM
- Post‐centrifugation recoveries [7]: ≥ 86.5%
- viability at 72 h, 750 μmol/L [8]: 71.6%
- cytotoxic effects on human hepatocytes (human hepatocytes): No significant cytotoxic effects
- fold increase in CYP1A2 mRNA (CYP1A2 mRNA; 250 μmol/L MMF, donor 4): 4.78 fold
- CYP1A2 mRNA induction, overall (CYP1A2 mRNA; MMF 1‐250 µmol/L, three donors): No concentration‐dependent induction effects
- IC50 (CYP2C8): > 750 µM
- MMF still present in medium [9]: over 65%
- % Control relative to 0 mmol/L MMF (P‐gp [4]; MMF 0.246 mmol/L): >69.4%
- % Control relative to 0 mmol/L MMF (P‐gp [4]; MMF 0.738 mmol/L): >88.2%
- % Control relative to 0 mmol/L MMF (P‐gp [4]; MMF 7.38 mmol/L): >138%
- net efflux ratio (P‐gp [10]): < 2
- metabolic stability under the incubation conditions [5]: stable
- IC50 (CYP2C9): > 750 µM
- IC50 (CYP2D6): > 750 µM
- Papp A→B at 120 min [11]: < 2 ×10⁻⁶ cm/s
- IC50 (CYP1A2): > 750 µM
- mean recovery upon centrifugation [12]: > 92.2%
- fold increase in CYP3A4 mRNA (CYP3A4 mRNA; 1 µmol/L MMF, donor 2 (XKU), not concentration dependent): > 2 fold
- CYP3A4 mRNA induction, overall (CYP3A4 mRNA; MMF at concentrations up to 250 μmol/L): no concentration‐dependent increases above 2‐fold
